Literature values as cited in patent US8257742B2, “Bisphosphonates for treating endometriosis” (Yissum Research Development Company of the Hebrew …, priority 2005, dated 2012).

Tested on: endometriosis explants
Settings: in vivo

## C=CCn1c(=O)n([C@@H]2O[C@H](CO)[C@@H](O)[C@H]2O)c2nc(N)[nH]c(=O)c21 [loxoribine, Loxoribine]
  regression of endometriosis explants: Regression of endometriosis explants was observed
